PubChem BioAssay (NCI)
Values joined by “and” are separate entries in the source; they are usually repeats but may differ in a detail not shown here. Equal values may be shown once.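 Cultured in 96-well plates, cells were exposed to test compound for 48 hours across five concentrations. TGI marks complete inhibition of growth.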

Columns and labels:
Experiment in all cases: growth of human tumour cells (NCI), 48 h
SF-295 CNS = system: SF-295 CNS
SK-MEL-2 melanoma = system: SK-MEL-2 melanoma
MDA-MB-435 = system: MDA-MB-435
CCRF-CEM leukemia = system: CCRF-CEM leukemia
SF-539 CNS = system: SF-539 CNS
OVCAR-5 ovarian = system: OVCAR-5 ovarian
MDA-N = system: MDA-N
HL-60(TB) leukemia = system: HL-60(TB) leukemia
HS 578T breast = system: HS 578T breast
MALME-3M melanoma = system: MALME-3M melanoma
T-47D breast = system: T-47D breast
DU-145 prostate = system: DU-145 prostate
SNB-19 CNS = system: SNB-19 CNS
COLO 205 colon = system: COLO 205 colon
K-562 leukemia = system: K-562 leukemia
ACHN renal = system: ACHN renal
UO-31 renal = system: UO-31 renal

Compound | TGI (SF-295 CNS) | TGI (SK-MEL-2 melanoma) | TGI (MDA-MB-435) | TGI (CCRF-CEM leukemia) | TGI (SF-539 CNS) | TGI (OVCAR-5 ovarian) | TGI (MDA-N) | TGI (HL-60(TB) leukemia) | TGI (HS 578T breast) | TGI (MALME-3M melanoma) | TGI (T-47D breast) | TGI (DU-145 prostate) | TGI (SNB-19 CNS) | TGI (COLO 205 colon) | TGI (K-562 leukemia) | TGI (ACHN renal) | TGI (UO-31 renal)
Nc1ccc(Nc2c3ccccc3nc3ccccc23)cc1 | > 10 µM | > 10 µM | > 10 µM | 6.19 µM | > 10 µM | > 10 µM | > 10 µM | > 10 µM | > 10 µM | 8.96 µM | > 10 µM | > 10 µM | > 10 µM | > 10 µM | > 10 µM | 4.58 µM | 
COCOCC1CCCN1CN1CCC[C@H]1COCOC (stereo partly specified) | > 100 µM | > 100 µM | > 100 µM | > 100 µM |  | > 100 µM | > 100 µM | 61.3 µM | > 100 µM |  | > 100 µM | > 100 µM | > 100 µM | > 100 µM | > 100 µM | > 100 µM | > 100 µM
C[C@]12CC[C@H](O)C=C1CC[C@@H]1[C@@H]2CC[C@]2(C)C(=N/O)/C(=C/c3ccncc3)C[C@@H]12 | 39.5 µM | 22.6 µM | 42.8 µM | 32.9 µM | 27.3 µM | 43.8 µM | 44 µM | 35.4 µM | > 100 µM | 48.5 µM | 44.4 µM | 19.9 µM | 32 µM | 38.8 µM | > 100 µM | 23.8 µM | 20.5 µM
CCN(CC)CCn1c2cc3c(cc2c(=O)c2cccnc21)OCO3 | > 10 µM | > 10 µM | > 10 µM | > 10 µM | > 10 µM | > 10 µM | > 10 µM | > 10 µM | > 10 µM | > 10 µM | > 10 µM | > 10 µM | > 10 µM | > 10 µM |  | > 10 µM | 
Cc1ccc(CC2(OCCN(C)C)CCC(C(C)(C)C)CC2)cc1 (stereo unspecified) | 9.86 µM and 9.5 µM | 4.96 µM and 5.35 µM | 5.79 µM and 5.96 µM | 7.46 µM and 7.98 µM | 4.55 µM and 8.81 µM | 14 µM and 13.9 µM | 6.96 µM and 5.28 µM | 6.24 µM and 5.02 µM | 28.4 µM and 21.2 µM | 3.36 µM and 3.64 µM | 8.34 µM and 6.33 µM | 15.1 µM and 17.1 µM | 16.6 µM and 16.8 µM | 3.98 µM and 3 µM | 3.97 µM and 4.45 µM | 19.1 µM and 20.5 µM | 14.6 µM and 19 µM
CC(C)C1SCc2nc3ccccc3n21 (stereo unspecified) | > 100 µM | 79.6 µM | 89.9 µM | > 100 µM | > 100 µM | > 100 µM | > 100 µM | > 100 µM | > 100 µM | > 100 µM | > 100 µM | > 100 µM | > 100 µM | 26.8 µM | > 100 µM | > 100 µM | > 100 µM
CCOC(=O)CCC(NC(=O)c1ccc(Nc2nc3ccccc3n3cccc23)cc1)C(=O)OCC (stereo unspecified) | 71.1 µM | 39.7 µM | > 100 µM | > 100 µM | 34.6 µM | > 100 µM | > 100 µM | > 100 µM | > 100 µM | > 100 µM | 1.99 µM | 97.7 µM | > 100 µM | > 100 µM | > 100 µM | 46 µM | > 100 µM
COC(=O)[C@]12CCC(C)(C)C[C@H]1C1=CC[C@@H]3[C@@]4(C)CC[C@H](OC5OC(CO)C(O)C(O)C5OC5OC(CO)C(O)C(O)C5O)C(C)(C)[C@@H]4CC[C@@]3(C)[C@]1(C)CC2 (stereo partly specified) | 27.2 µM | 23.9 µM | 20.8 µM | 33.8 µM |  | 30.5 µM | 18.4 µM | 19.4 µM | 56.8 µM | 25.2 µM | 36.3 µM | 24.5 µM | 29.6 µM | 10.4 µM | 25.4 µM | 20.5 µM | 10.9 µM
COc1ccc2oc(=O)c3c(c2c1C)OC(C)(C)C=C3 | > 100 µM | > 100 µM | > 100 µM | > 100 µM | > 100 µM | > 100 µM | > 100 µM | > 100 µM | > 100 µM | > 100 µM | > 100 µM | > 100 µM | > 100 µM | > 100 µM | > 100 µM | > 100 µM | > 100 µM
COc1ccc([C@H]2C=C(c3cc(F)c(Cl)cc3Cl)NC(=S)N2)cc1 | > 100 µM | 58.4 µM | 56.4 µM | > 100 µM | > 100 µM | > 100 µM | 33.2 µM | 35.7 µM | > 100 µM | > 100 µM | > 100 µM | > 100 µM | > 100 µM | 48.6 µM | > 100 µM | > 100 µM | > 100 µM
COc1ccccc1N1C(=O)CS(=O)(=O)C1c1cccc(Oc2ccccc2)c1 (stereo unspecified) | 38.2 µM | 27.1 µM | 22.2 µM | > 100 µM | 32.6 µM | 59 µM | 16.5 µM | 79.9 µM | 48.2 µM | 30 µM | 48.3 µM | 71.2 µM | 38.7 µM | 34.4 µM | 19.1 µM | 33.7 µM | 35.1 µM
Cc1cc2c(cc1C)C(=O)C1(C2)Cc2c(ccc(C)c2C)C1=O (stereo unspecified) | > 100 µM | > 100 µM | > 100 µM | > 100 µM | > 100 µM | > 100 µM | > 100 µM | > 100 µM | > 100 µM | > 100 µM | > 100 µM | > 100 µM | > 100 µM | > 100 µM | > 100 µM | > 100 µM | > 100 µM
O=C1C[C@@H](Sc2ccccc2)C2(OCCO2)[C@H]2ON3CCC[C@@H]3[C@@H]12 | 26.7 µM | 13.3 µM | 10 µM | 5.72 µM | 19.8 µM |  | 6.97 µM | 6.08 µM | 13.1 µM | 4.31 µM | 8.75 µM | 6.07 µM | 29 µM | 6.32 µM | 13.8 µM | 15.2 µM | 4.12 µM
NNc1ccccc1Cl | > 100 µM | > 100 µM | > 100 µM | > 100 µM | > 100 µM | > 100 µM | > 100 µM | > 100 µM | > 100 µM | > 100 µM | > 100 µM | > 100 µM | > 100 µM | > 100 µM | > 100 µM | > 100 µM | > 100 µM
